Source: US20050022267A1, “Methods for Agrobacterium-mediated transformation of dandelion” (priority 2003, published 2005)

Columns and labels:
dandelion leaf explants [1] = experiment: Effect of phyto-hormones on dandelion regeneration: adventitious shoot formation of leaf explants on seedling media; format: cell-based; details: for number of regenerated shoots per explant / percentage of leaf explants displaying adventitious shoot formation: four weeks
Experimental: Dandelion seeds are surface-sterilized in approximately 70% (volume/volume, v/v) ethanol for 30 sec in the bottle. The ethanol is removed and the seeds are soaked in approximately 1% (v/v) bleach with gentle agitation for about 15 minutes. The bleach is poured off and the […] are rinsed thoroughly about 3-4 times with sterilized distilled water. Seeds are germinated and in vitro cultured in the sterile bottles containing seedling medium (Table 1). Over one month-old seedlings are used as stock plants for leaf and root explants. The leaves and roots of stock plants are placed in a petri plate with droplets of sterile water. Explants of leaves (ca. 0.5 cm in diameter) and of roots (ca. 0.5 cm in length) were excised from dandelion plants. Approximately 15 to 20 explants per plate are positioned with the adaxial surface down onto pre-incubation medium (Table 2). The plates are incubated under mixed white and red lights for about 6 days at about 22° C. […] Parentheses indicate the number of regenerated shoots per explant.

[2] = isolated from dandelion roots; cited from earlier work
dandelion leaf explants [3] = experiment: Effect of maltose on shoot regeneration in shoot induction media; format: cell-based; details: 1% maltose (w/v) in shoot induction media
Experimental: Leaf explants derived from dandelion plants were cultured in shoot induction media containing no maltose (w/v) or 1% maltose (w/v) to compare the efficacy of maltose on shoot production.

[4] = 6-benzyladenine 0.25 mg/L, α-naphthalene acetic acid 0 mg/L
[5] = 6-benzyladenine 0.25 mg/L, α-naphthalene acetic acid 0.1 mg/L
[6] = 6-benzyladenine 0.25 mg/L, α-naphthalene acetic acid 0.5 mg/L
[7] = 6-benzyladenine 0.25 mg/L, α-naphthalene acetic acid 1.0 mg/L
[8] = 6-benzyladenine 0.25 mg/L, α-naphthalene acetic acid 2.0 mg/L
[9] = 6-benzyladenine 0.5 mg/L, α-naphthalene acetic acid 0 mg/L
[10] = 6-benzyladenine 0.5 mg/L, α-naphthalene acetic acid 0.1 mg/L
[11] = 6-benzyladenine 0.5 mg/L, α-naphthalene acetic acid 0.5 mg/L
[12] = 6-benzyladenine 0.5 mg/L, α-naphthalene acetic acid 1.0 mg/L
[13] = 6-benzyladenine 0.5 mg/L, α-naphthalene acetic acid 2.0 mg/L
[14] = 6-benzyladenine 1.0 mg/L, α-naphthalene acetic acid 0 mg/L
[15] = 6-benzyladenine 1.0 mg/L, α-naphthalene acetic acid 0.1 mg/L
[16] = 6-benzyladenine 1.0 mg/L, α-naphthalene acetic acid 0.5 mg/L
[17] = 6-benzyladenine 1.0 mg/L, α-naphthalene acetic acid 1.0 mg/L
[18] = 6-benzyladenine 1.0 mg/L, α-naphthalene acetic acid 2.0 mg/L
[19] = 6-benzyladenine 2.0 mg/L, α-naphthalene acetic acid 0 mg/L
[20] = 6-benzyladenine 2.0 mg/L, α-naphthalene acetic acid 0.1 mg/L
[21] = 6-benzyladenine 2.0 mg/L, α-naphthalene acetic acid 0.5 mg/L
[22] = 6-benzyladenine 2.0 mg/L, α-naphthalene acetic acid 1.0 mg/L
[23] = 6-benzyladenine 2.0 mg/L, α-naphthalene acetic acid 2.0 mg/L
[24] = α-naphthalene acetic acid 0.1 mg/L, 6-benzyladenine 0 mg/L
[25] = α-naphthalene acetic acid 0.1 mg/L, kinetin 0 mg/L
[26] = α-naphthalene acetic acid 0.5 mg/L, 6-benzyladenine 0 mg/L
[27] = α-naphthalene acetic acid 0.5 mg/L, kinetin 0 mg/L
[28] = α-naphthalene acetic acid 1.0 mg/L, 6-benzyladenine 0 mg/L
[29] = α-naphthalene acetic acid 1.0 mg/L, kinetin 0 mg/L
[30] = α-naphthalene acetic acid 2.0 mg/L, 6-benzyladenine 0 mg/L
[31] = α-naphthalene acetic acid 2.0 mg/L, kinetin 0 mg/L
[32] = kinetin 0.5 mg/L, α-naphthalene acetic acid 0 mg/L
[33] = kinetin 0.5 mg/L, α-naphthalene acetic acid 0.1 mg/L
[34] = kinetin 0.5 mg/L, α-naphthalene acetic acid 0.5 mg/L
[35] = kinetin 0.5 mg/L, α-naphthalene acetic acid 1.0 mg/L
[36] = kinetin 0.5 mg/L, α-naphthalene acetic acid 2.0 mg/L
[37] = kinetin 1.0 mg/L, α-naphthalene acetic acid 0 mg/L
[38] = kinetin 1.0 mg/L, α-naphthalene acetic acid 0.1 mg/L
[39] = kinetin 1.0 mg/L, α-naphthalene acetic acid 0.5 mg/L
[40] = kinetin 1.0 mg/L, α-naphthalene acetic acid 1.0 mg/L
[41] = kinetin 1.0 mg/L, α-naphthalene acetic acid 2.0 mg/L
[42] = kinetin 2.0 mg/L, α-naphthalene acetic acid 0 mg/L
[43] = kinetin 2.0 mg/L, α-naphthalene acetic acid 0.1 mg/L
[44] = kinetin 2.0 mg/L, α-naphthalene acetic acid 0.5 mg/L
[45] = kinetin 2.0 mg/L, α-naphthalene acetic acid 1.0 mg/L
[46] = kinetin 2.0 mg/L, α-naphthalene acetic acid 2.0 mg/L
[47] = kinetin 3.0 mg/L, α-naphthalene acetic acid 0 mg/L
[48] = kinetin 3.0 mg/L, α-naphthalene acetic acid 0.1 mg/L
[49] = kinetin 3.0 mg/L, α-naphthalene acetic acid 0.5 mg/L
[50] = kinetin 3.0 mg/L, α-naphthalene acetic acid 1.0 mg/L
[51] = kinetin 3.0 mg/L, α-naphthalene acetic acid 2.0 mg/L

6-benzyladenine
suitability for shoot regeneration of dandelion (dandelion leaf explants [1]; 1 or 2 mg/l 6-benzyladenine and 0.1 mg/l α-naphthalene acetic acid): most suitable for shoot regeneration | number of regenerated shoots per explant (dandelion leaf explants [1]; [4]): (21.2) shoots per explant | percentage of leaf explants displaying adventitious shoot formation (dandelion leaf explants [1]; [4]): 60.0% | number of regenerated shoots per explant (dandelion leaf explants [1]; [5]): (16.3) shoots per explant | percentage of leaf explants displaying adventitious shoot formation (dandelion leaf explants [1]; [5]): 63.0% | number of regenerated shoots per explant (dandelion leaf explants [1]; [6]): (12.0) shoots per explant | percentage of leaf explants displaying adventitious shoot formation (dandelion leaf explants [1]; [6]): 78.0% | number of regenerated shoots per explant (dandelion leaf explants [1]; [7]): (24.5) shoots per explant | percentage of leaf explants displaying adventitious shoot formation (dandelion leaf explants [1]; [7]): 97.0% | number of regenerated shoots per explant (dandelion leaf explants [1]; [8]): (3.6) shoots per explant | percentage of leaf explants displaying adventitious shoot formation (dandelion leaf explants [1]; [8]): 90.0% | number of regenerated shoots per explant (dandelion leaf explants [1]; [9]): (17.4) shoots per explant | percentage of leaf explants displaying adventitious shoot formation (dandelion leaf explants [1]; [9]): 75.0% | number of regenerated shoots per explant (dandelion leaf explants [1]; [10]): (23.8) shoots per explant | percentage of leaf explants displaying adventitious shoot formation (dandelion leaf explants [1]; [10]): 99.9% | number of regenerated shoots per explant (dandelion leaf explants [1]; [11]): (23.7) shoots per explant | percentage of leaf explants displaying adventitious shoot formation (dandelion leaf explants [1]; [11]): 99.9% | number of regenerated shoots per explant (dandelion leaf explants [1]; [12]): (21.7) shoots per explant | percentage of leaf explants displaying adventitious shoot formation (dandelion leaf explants [1]; [12]): 88.0% | number of regenerated shoots per explant (dandelion leaf explants [1]; [13]): (3.2) shoots per explant | percentage of leaf explants displaying adventitious shoot formation (dandelion leaf explants [1]; [13]): 40.0% | number of regenerated shoots per explant (dandelion leaf explants [1]; [14]): (17.4) shoots per explant | percentage of leaf explants displaying adventitious shoot formation (dandelion leaf explants [1]; [14]): 85.0% | number of regenerated shoots per explant (dandelion leaf explants [1]; [15]): (25.1) shoots per explant | percentage of leaf explants displaying adventitious shoot formation (dandelion leaf explants [1]; [15]): 99.9% | number of regenerated shoots per explant (dandelion leaf explants [1]; [16]): (20.4) shoots per explant | percentage of leaf explants displaying adventitious shoot formation (dandelion leaf explants [1]; [16]): 99.9% | number of regenerated shoots per explant (dandelion leaf explants [1]; [17]): (13.1) shoots per explant | percentage of leaf explants displaying adventitious shoot formation (dandelion leaf explants [1]; [17]): 83.0% | number of regenerated shoots per explant (dandelion leaf explants [1]; [18]): (5.9) shoots per explant | percentage of leaf explants displaying adventitious shoot formation (dandelion leaf explants [1]; [18]): 99.9% | number of regenerated shoots per explant (dandelion leaf explants [1]; [19]): (16.0) shoots per explant | percentage of leaf explants displaying adventitious shoot formation (dandelion leaf explants [1]; [19]): 99.9% | number of regenerated shoots per explant (dandelion leaf explants [1]; [20]): (17.4) shoots per explant | percentage of leaf explants displaying adventitious shoot formation (dandelion leaf explants [1]; [20]): 99.9% | number of regenerated shoots per explant (dandelion leaf explants [1]; [21]): (20.7) shoots per explant | percentage of leaf explants displaying adventitious shoot formation (dandelion leaf explants [1]; [21]): 99.9% | number of regenerated shoots per explant (dandelion leaf explants [1]; [22]): (8.5) shoots per explant | percentage of leaf explants displaying adventitious shoot formation (dandelion leaf explants [1]; [22]): 99.9% | number of regenerated shoots per explant (dandelion leaf explants [1]; [23]): (5.4) shoots per explant | percentage of leaf explants displaying adventitious shoot formation (dandelion leaf explants [1]; [23]): 99.9%

CC1(C)CC[C@]2(C)CC=C3[C@]4(C)CC[C@H]5C(C)(C)[C@@H](O)CC[C@]5(C)[C@H]4CC[C@@]3(C)[C@@H]2C1 [taraxerol]
anti-tumor-promoting activity [2]: potent anti-tumor-promoting activity

O=C(O)Cc1cccc2ccccc12 [α-Naphthalene acetic acid, α-naphthalene acetic acid]
number of regenerated shoots per explant (dandelion leaf explants [1]; [24]): (0.0) shoots per explant | percentage of leaf explants displaying adventitious shoot formation (dandelion leaf explants [1]; [24]): 0.0% | number of regenerated shoots per explant (dandelion leaf explants [1]; [25]): (0.0) shoots per explant | percentage of leaf explants displaying adventitious shoot formation (dandelion leaf explants [1]; [25]): 0.0% | number of regenerated shoots per explant (dandelion leaf explants [1]; [26]): (2.0) shoots per explant | percentage of leaf explants displaying adventitious shoot formation (dandelion leaf explants [1]; [26]): 20.0% | number of regenerated shoots per explant (dandelion leaf explants [1]; [27]): (0.0) shoots per explant | percentage of leaf explants displaying adventitious shoot formation (dandelion leaf explants [1]; [27]): 0.0% | number of regenerated shoots per explant (dandelion leaf explants [1]; [28]): (0.0) shoots per explant | percentage of leaf explants displaying adventitious shoot formation (dandelion leaf explants [1]; [28]): 0.0% | number of regenerated shoots per explant (dandelion leaf explants [1]; [29]): (0.0) shoots per explant | percentage of leaf explants displaying adventitious shoot formation (dandelion leaf explants [1]; [29]): 5.0% | number of regenerated shoots per explant (dandelion leaf explants [1]; [30]): (0.0) shoots per explant | percentage of leaf explants displaying adventitious shoot formation (dandelion leaf explants [1]; [30]): 0.0% | number of regenerated shoots per explant (dandelion leaf explants [1]; [31]): (0.0) shoots per explant | percentage of leaf explants displaying adventitious shoot formation (dandelion leaf explants [1]; [31]): 0.0%

OC[C@H]1O[C@H](O[C@H]2[C@H](O)[C@@H](O)C(O)O[C@@H]2CO)[C@H](O)[C@@H](O)[C@@H]1O (mixture of isomers) [Maltose, maltose]
shoot production in comparison to no maltose (dandelion leaf explants [3]): improves shoot production | # of Shoots per Explants (dandelion leaf explants [3]; leaf explants): 25

c1coc(CNc2ncnc3[nH]cnc23)c1 [Kinetin, kinetin]
suitability for dandelion shoot regeneration (dandelion leaf explants [1]; 0.05 mg/l α-naphthalene acetic acid and 1.0 mg/l kinetin or 0.1 mg/l α-naphthalene acetic acid and 2.0 mg/l kinetin): also suitable for dandelion shoot regeneration | number of regenerated shoots per explant (dandelion leaf explants [1]; [32]): (24.8) shoots per explant | percentage of leaf explants displaying adventitious shoot formation (dandelion leaf explants [1]; [32]): 99.9% | number of regenerated shoots per explant (dandelion leaf explants [1]; [33]): (19.8) shoots per explant | percentage of leaf explants displaying adventitious shoot formation (dandelion leaf explants [1]; [33]): 96.7% | number of regenerated shoots per explant (dandelion leaf explants [1]; [34]): (16.9) shoots per explant | percentage of leaf explants displaying adventitious shoot formation (dandelion leaf explants [1]; [34]): 99.9% | number of regenerated shoots per explant (dandelion leaf explants [1]; [35]): (8.1) shoots per explant | percentage of leaf explants displaying adventitious shoot formation (dandelion leaf explants [1]; [35]): 99.9% | number of regenerated shoots per explant (dandelion leaf explants [1]; [36]): (5.8) shoots per explant | percentage of leaf explants displaying adventitious shoot formation (dandelion leaf explants [1]; [36]): 99.9% | number of regenerated shoots per explant (dandelion leaf explants [1]; [37]): (22.7) shoots per explant | percentage of leaf explants displaying adventitious shoot formation (dandelion leaf explants [1]; [37]): 99.9% | number of regenerated shoots per explant (dandelion leaf explants [1]; [38]): (23.4) shoots per explant | percentage of leaf explants displaying adventitious shoot formation (dandelion leaf explants [1]; [38]): 99.9% | number of regenerated shoots per explant (dandelion leaf explants [1]; [39]): (16.8) shoots per explant | percentage of leaf explants displaying adventitious shoot formation (dandelion leaf explants [1]; [39]): 99.9% | number of regenerated shoots per explant (dandelion leaf explants [1]; [40]): (6.7) shoots per explant | percentage of leaf explants displaying adventitious shoot formation (dandelion leaf explants [1]; [40]): 99.9% | number of regenerated shoots per explant (dandelion leaf explants [1]; [41]): (9.8) shoots per explant | percentage of leaf explants displaying adventitious shoot formation (dandelion leaf explants [1]; [41]): 99.9% | number of regenerated shoots per explant (dandelion leaf explants [1]; [42]): (21.9) shoots per explant | percentage of leaf explants displaying adventitious shoot formation (dandelion leaf explants [1]; [42]): 95.0% | number of regenerated shoots per explant (dandelion leaf explants [1]; [43]): (23.6) shoots per explant | percentage of leaf explants displaying adventitious shoot formation (dandelion leaf explants [1]; [43]): 99.9% | number of regenerated shoots per explant (dandelion leaf explants [1]; [44]): (20.3) shoots per explant | percentage of leaf explants displaying adventitious shoot formation (dandelion leaf explants [1]; [44]): 99.9% | number of regenerated shoots per explant (dandelion leaf explants [1]; [45]): (13.4) shoots per explant | percentage of leaf explants displaying adventitious shoot formation (dandelion leaf explants [1]; [45]): 95.5% | number of regenerated shoots per explant (dandelion leaf explants [1]; [46]): (7.3) shoots per explant | percentage of leaf explants displaying adventitious shoot formation (dandelion leaf explants [1]; [46]): 96.2% | number of regenerated shoots per explant (dandelion leaf explants [1]; [47]): (14.7) shoots per explant | percentage of leaf explants displaying adventitious shoot formation (dandelion leaf explants [1]; [47]): 99.9% | number of regenerated shoots per explant (dandelion leaf explants [1]; [48]): (19.3) shoots per explant | percentage of leaf explants displaying adventitious shoot formation (dandelion leaf explants [1]; [48]): 99.9% | number of regenerated shoots per explant (dandelion leaf explants [1]; [49]): (25.5) shoots per explant | percentage of leaf explants displaying adventitious shoot formation (dandelion leaf explants [1]; [49]): 99.9% | number of regenerated shoots per explant (dandelion leaf explants [1]; [50]): (8.9) shoots per explant | percentage of leaf explants displaying adventitious shoot formation (dandelion leaf explants [1]; [50]): 99.9% | number of regenerated shoots per explant (dandelion leaf explants [1]; [51]): (8.1) shoots per explant | percentage of leaf explants displaying adventitious shoot formation (dandelion leaf explants [1]; [51]): 99.9%

C=C1CC[C@]2(C)CC[C@]3(C)[C@H](CC[C@@H]4[C@@]5(C)CC[C@H](O)C(C)(C)[C@@H]5CC[C@]43C)[C@H]2[C@@H]1C [taraxasterol]
anti-tumor-promoting activity [2]: potent anti-tumor-promoting activity
